In US10689343B2, “Inhibitors of tryptophan 2,3-dioxygenase” (NETHERLANDS TRANSLATIONAL RESEARCH CENTER B.V., priority 2016, dated 2020) one finds IC50 data, which are given here for 23 compounds.

Assay [1] concerns the target CYP2D6 (Homo sapiens, UniProt P10635). Kind of assay: P450-Glo CYP2D6 Luc-IP assay.
Assay [2] addresses T1, TDO in SW48 colorectal carcinoma cells (Homo sapiens, UniProt P48775).
T1 construct: Endogenous expression of TDO has been determined in a variety of cancer cell lines; host or cells: SW48 colorectal carcinoma cells
Kind of assay: Cell-based assay for TDO in SW48 colorectal carcinoma cells (NFK GreenScreen). The settings on record: 18 hours with L-tryptophan, read-out: IC50 on TDO in cells. The procedure: The biological activity of TDO inhibitors can be measured by applying above detection methods to cells that are treated with test compound. Endogenous expression of TDO has been determined in a variety of cancer cell lines (Pilotte et al.; Seegers, et al.), or TDO can be expressed in cells that lack endogenous TDO by transfection of an expression vector containing TDO cDNA. […] A preferred assay is the cell-based NFK GreenScreen™ assay (Seegers et al, supra), which measures the cellular inhibitory activity of compounds on TDO. […] No. V9920). Cell-Based Assay for TDO The NFK GreenScreen™ assay technology was also used to determine the inhibitory activity of compounds on TDO in SW48 colorectal carcinoma cells (Seegers, N., et al., J. Biol. Screen. 19: 1266; 2014). […] Compounds were dissolved in DMSO and diluted in RPMI 1640. Final DMSO concentration in the assay was 0.4% (v/v). Eight thousand cells per well in 40 μl were seeded in a black 384-well tissue plate (cat. No. 781086; […] To determine NFK levels, 12 μl NFK Green™ (NTRC, Oss, The Netherlands) was added to each well, and the plate was sealed and incubated for 4 hours at 37° C. Fluorescence was measured on an EnVision multimode reader (Perkin Elmer, Waltham, Mass., USA).

The target of assay [3] is CYP3A4 (Homo sapiens, UniProt P08684). Kind of assay: P450-Glo CYP3A4 luciferin isopropylacetal (Luc-IP) assay.
Assay [4] deals with T2, Recombinant TDO (Homo sapiens, UniProt P48775).
T2 construct: Recombinant TDO (Seegers, N., et al.) and all other assay components were diluted in TDO reaction buffer
Briefly: Biochemical assay for TDO (NFK GreenScreen). The settings on record: 50 nM TDO, 200 μM L-tryptophan. The method, boiled down: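 Recombinant human TDO (50 nM) preincubated with compound 60 min at room temperature in 100 mM NaH2PO4 pH 7.0, 0.02% Tween-20, with ascorbic acid. Reaction then run 15 min with 200 μM L-tryptophan (final), 0.3% DMSO. NFK product detected by NFK Green fluorescence after 3 h at 37° C; IC50 derived.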

Several values for one entry are separate records, joined by “and”; a condition that tells them apart may be missing. Identical values can stand only once.

T1 sequence (P48775 whole entry): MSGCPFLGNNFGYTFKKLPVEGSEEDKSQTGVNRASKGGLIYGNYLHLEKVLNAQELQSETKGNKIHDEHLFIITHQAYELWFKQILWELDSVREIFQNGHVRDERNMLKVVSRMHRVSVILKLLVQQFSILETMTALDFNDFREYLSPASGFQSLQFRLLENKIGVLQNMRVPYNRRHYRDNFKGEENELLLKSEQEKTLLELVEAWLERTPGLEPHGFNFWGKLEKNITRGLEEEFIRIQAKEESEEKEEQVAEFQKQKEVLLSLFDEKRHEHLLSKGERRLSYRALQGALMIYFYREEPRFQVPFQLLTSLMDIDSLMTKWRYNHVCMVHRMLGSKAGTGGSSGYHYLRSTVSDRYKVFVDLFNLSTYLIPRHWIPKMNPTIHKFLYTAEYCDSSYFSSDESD
T2 sequence (P48775 whole entry): as above
CYP3A4, sequence (P08684 whole entry): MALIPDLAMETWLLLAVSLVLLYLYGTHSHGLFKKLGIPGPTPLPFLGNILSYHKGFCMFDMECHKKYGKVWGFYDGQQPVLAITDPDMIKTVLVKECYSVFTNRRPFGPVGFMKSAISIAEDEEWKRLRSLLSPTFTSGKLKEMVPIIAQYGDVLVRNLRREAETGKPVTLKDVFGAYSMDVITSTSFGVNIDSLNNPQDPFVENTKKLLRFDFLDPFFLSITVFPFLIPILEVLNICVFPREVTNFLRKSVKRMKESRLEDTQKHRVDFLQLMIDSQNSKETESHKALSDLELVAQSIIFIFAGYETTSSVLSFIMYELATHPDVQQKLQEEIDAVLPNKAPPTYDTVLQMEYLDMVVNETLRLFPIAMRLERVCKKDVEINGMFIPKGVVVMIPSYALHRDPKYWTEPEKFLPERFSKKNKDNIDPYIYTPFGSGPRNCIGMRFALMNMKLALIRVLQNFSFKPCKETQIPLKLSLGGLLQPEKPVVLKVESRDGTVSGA
CYP2D6, sequence (P10635 whole entry): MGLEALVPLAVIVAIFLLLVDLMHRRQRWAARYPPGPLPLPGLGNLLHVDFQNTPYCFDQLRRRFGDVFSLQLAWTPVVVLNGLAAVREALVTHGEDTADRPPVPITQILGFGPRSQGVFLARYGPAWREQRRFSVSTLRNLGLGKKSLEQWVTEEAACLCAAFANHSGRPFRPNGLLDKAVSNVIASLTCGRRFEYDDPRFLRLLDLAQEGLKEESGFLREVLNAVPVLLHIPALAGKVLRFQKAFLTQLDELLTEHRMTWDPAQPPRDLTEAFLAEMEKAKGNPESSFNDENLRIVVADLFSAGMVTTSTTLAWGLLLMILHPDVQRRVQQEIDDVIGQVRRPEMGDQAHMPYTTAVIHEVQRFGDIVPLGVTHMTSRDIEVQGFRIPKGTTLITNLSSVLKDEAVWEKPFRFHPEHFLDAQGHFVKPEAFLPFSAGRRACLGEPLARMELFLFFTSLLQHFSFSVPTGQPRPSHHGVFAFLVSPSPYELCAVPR

A word on the IC50: it is the concentration needed to halve the response being measured. As for `CO[C@H]1CNCC[C@H]1NC(=O)c1ccc(-c2c[nH]c3cc(F)ccc23)cc1` [Example 43, 4-(6-Fluoro-1H-indol-3-yl)-N-[(3S,4R)-3-methoxy-4-piperidyl]benzamide], the 50% inhibitory concentration (IC50) is over 10 µM in assay [1]; ≤ 500 nM and 200 to 500 nM in assay [2]; 5 to 10 µM in assay [3]; under 1000 nM in assay [4].
Take `O=C(NC1CCOCC1)c1ccc(-c2c[nH]c3cc(F)ccc23)cc1` [Example 44, 4-(6-Fluoro-1H-indol-3-yl)-N-tetrahydropyran-4-yl-benzamide]: the IC50 in assay [1] is over 10 µM; in assay [2] it was ≤ 500 nM and 200 to 500 nM; in assay [3], over 10 µM; in assay [4] it was under 1000 nM.
In the case of `C[C@H](NC(=O)c1ccc(-c2c[nH]c3cc(F)ccc23)cc1)c1nnc2ccccn12` [Example 45, 4-(6-Fluoro-1H-indol-3-yl)-N-[(1S)-1-([1,2,4]triazolo[4,3-a]pyridin-3-yl)ethyl]benzamide], the IC50 was over 10 µM in assay [1]; ≤ 500 nM and 200 to 500 nM in assay [2]; 5 to 10 µM in assay [3]; 1000 to 5000 nM in assay [4].
`O=C(NCCN1CCCCC1)c1ccc(-c2c[nH]c3cc(F)ccc23)cc1` [Example 46, 4-(6-Fluoro-1H-indol-3-yl)-N-[2-(1-piperidyl)ethyl]benzamide]: the concentration for half-maximal inhibition (IC50) in assay [1] was over 10 µM; in assay [2] it was ≤ 500 nM and 200 to 500 nM; in assay [3], 5 to 10 µM; in assay [4], under 1000 nM.
For the compound `CN1C2CCC1CC(NC(=O)c1ccc(-c3c[nH]c4cc(F)ccc34)cc1)C2` (centres unmarked) [Example 47, 4-(6-Fluoro-1H-indol-3-yl)-N-(8-methyl-8-azabicyclo[3.2.1]octan-3-yl)benzamide], the IC50 is over 10 µM in assay [1]; ≤ 500 nM and 200 to 500 nM in assay [2]; over 10 µM in assay [3]; under 1000 nM in assay [4].
On to `CC(CO)(CO)NC(=O)c1ccc(-c2c[nH]c3cc(F)ccc23)cc1` [Example 48, 4-(6-Fluoro-1H-indol-3-yl)-N-[2-hydroxy-1-(hydroxymethyl)-1-methyl-ethyl]benzamide], for which the IC50 in assay [1] was over 10 µM; in assay [2], ≤ 500 nM and 200 to 500 nM; in assay [3] it was over 10 µM; in assay [4], under 1000 nM.
As to `CC(C)[C@H](C)NC(=O)c1ccc(-c2c[nH]c3cc(F)ccc23)cc1` [Example 49, N-[(1S)-1,2-dimethylpropyl]-4-(6-fluoro-1H-indol-3-yl)benzamide], the IC50 in assay [1] was over 10 µM; in assay [2] it was ≤ 500 nM and 200 to 500 nM; in assay [3] it was over 10 µM; in assay [4], under 1000 nM.
With `O=C(N[C@@H]1CCCC[C@H]1O)c1ccc(-c2c[nH]c3cc(F)ccc23)cc1` [Example 50, 4-(6-Fluoro-1H-indol-3-yl)-N-[(1R,2R)-2-hydroxycyclohexyl]benzamide], the IC50 in assay [1] was over 10 µM; in assay [2] it was ≤ 500 nM and 200 to 500 nM; in assay [3], over 10 µM; in assay [4], under 1000 nM.
For `C[C@H](CO)NC(=O)c1ccc(-c2c[nH]c3cc(F)ccc23)cc1Cl` [Example 51, 2-Chloro-4-(6-fluoro-1H-indol-3-yl)-N-[(1R)-2-hydroxy-1-methyl-ethyl]benzamide], the IC50 in assay [1] was over 10 µM; in assay [2], ≤ 500 nM and 200 to 500 nM; in assay [3], over 10 µM; in assay [4] it was under 1000 nM.
Consider `CN(C)CCCNC(=O)c1ccc(-c2c[nH]c3cc(F)ccc23)cc1Cl` [Example 52, 2-Chloro-N-[3-(dimethylamino)propyl]-4-(6-fluoro-1H-indol-3-yl)benzamide], for which the half-inhibitory concentration (IC50) in assay [1] is over 10 µM; in assay [2], at most 200 nM; in assay [3] it was over 10 µM; in assay [4], under 1000 nM.
Take `O=C(NCC(F)(F)F)c1ccc(-c2c[nH]c3cc(F)ccc23)cc1Cl` [Example 53, 2-Chloro-4-(6-fluoro-1H-indol-3-yl)-N-(2,2,2-trifluoroethyl)benzamide]: the IC50 in assay [1] was over 10 µM; in assay [2], ≤ 500 nM and 200 to 500 nM; in assay [3] it was over 10 µM; in assay [4], under 1000 nM.
`C[C@@H](CO)NC(=O)c1ccc(-c2c[nH]c3cc(F)ccc23)cc1Cl` [Example 54, 2-Chloro-4-(6-fluoro-1H-indol-3-yl)-N-[(1S)-2-hydroxy-1-methyl-ethyl]benzamide]: the IC50 is over 10 µM in assay [1], at most 200 nM in assay [2], over 10 µM in assay [3] and under 1000 nM in assay [4].
In the case of `O=C(N[C@H]1CCCNC1)c1ccc(-c2c[nH]c3cc(F)ccc23)cc1Cl` [Example 55, 2-Chloro-4-(6-fluoro-1H-indol-3-yl)-N-[(3S)-3-piperidyl]benzamide], the IC50 is over 10 µM in assay [1], at most 200 nM in assay [2], 5 to 10 µM in assay [3] and under 1000 nM in assay [4].
For the compound `C[C@H](CO)NC(=O)c1c(F)cc(-c2c[nH]c3cc(F)ccc23)cc1F` [Example 56, 2,6-Difluoro-4-(6-fluoro-1H-indol-3-yl)-N-[(1R)-2-hydroxy-1-methyl-ethyl]benzamide], the concentration for half-maximal inhibition (IC50) in assay [1] was over 10 µM; in assay [2], ≤ 500 nM and 200 to 500 nM; in assay [3], over 10 µM; in assay [4], under 1000 nM.
Turning to `O=C(NCC(F)(F)F)c1c(F)cc(-c2c[nH]c3cc(F)ccc23)cc1F` [Example 57, 2,6-Difluoro-4-(6-fluoro-1H-indol-3-yl)-N-(2,2,2-trifluoroethyl)benzamide], the IC50 was 5 to 10 µM in assay [1]; ≤ 500 nM and 200 to 500 nM in assay [2]; 5 to 10 µM in assay [3]; under 1000 nM in assay [4].
With `O=C(N[C@H]1CCCNC1)c1c(F)cc(-c2c[nH]c3cc(F)ccc23)cc1F` [Example 58, 2,6-Difluoro-4-(6-fluoro-1H-indol-3-yl)-N-[(3S)-3-piperidyl]benzamide], the IC50 is over 10 µM in assay [1], at most 200 nM in assay [2], over 10 µM in assay [3] and under 1000 nM in assay [4].
As to `CN(C)CCCNC(=O)c1c(F)cc(-c2c[nH]c3cc(F)ccc23)cc1F` [Example 59, N-[3-(dimethylamino)propyl]-2,6-difluoro-4-(6-fluoro-1H-indol-3-yl)benzamide], the IC50 in assay [1] is over 10 µM; in assay [2], ≤ 500 nM and 200 to 500 nM; in assay [3] it was over 10 µM; in assay [4] it was under 1000 nM.
Regarding `C[C@@H](CO)NC(=O)c1c(F)cc(-c2c[nH]c3cc(F)ccc23)cc1F` [Example 60, 2,6-Difluoro-4-(6-fluoro-1H-indol-3-yl)-N-[(1S)-2-hydroxy-1-methyl-ethyl]benzamide], the IC50 in assay [1] was over 10 µM; in assay [2], ≤ 500 nM and 200 to 500 nM; in assay [3], over 10 µM; in assay [4] it was under 1000 nM.
Consider `N[C@H]1CC[C@@H](NC(=O)c2ccc(-c3c[nH]c4cc(F)ccc34)cc2)CC1` [Example 61, N-(cis-4-aminocyclohexyl)-4-(6-fluoro-1H-indol-3-yl)benzamide], for which the half-inhibitory concentration (IC50) was over 10 µM in assay [1]; ≤ 500 nM and 200 to 500 nM in assay [2]; 5 to 10 µM in assay [3]; under 1000 nM in assay [4].
In the case of `O=C(NCC1(O)CCC1)c1ccc(-c2c[nH]c3cc(F)ccc23)cc1` [Example 62, 4-(6-Fluoro-1H-indol-3-yl)-N-[(1-hydroxycyclobutyl)methyl]benzamide], the IC50 in assay [1] was over 10 µM; in assay [2], ≤ 500 nM and 200 to 500 nM; in assay [3], 5 to 10 µM; in assay [4], under 1000 nM.
Turning to `CN1CCC(O)(CNC(=O)c2ccc(-c3c[nH]c4cc(F)ccc34)cc2)CC1` [Example 63, 4-(6-Fluoro-1H-indol-3-yl)-N-[(4-hydroxy-1-methyl-4-piperidyl)methyl]benzamide], the 50% inhibitory concentration (IC50) in assay [1] is over 10 µM; in assay [2], ≤ 500 nM and 200 to 500 nM; in assay [3], over 10 µM; in assay [4] it was under 1000 nM.
As to `O=C(NC1[C@H]2COC[C@@H]12)c1ccc(-c2c[nH]c3cc(F)ccc23)cc1` (stereo partly drawn) [Example 64, 4-(6-Fluoro-1H-indol-3-yl)-N-[(1R,5S)-3-oxabicyclo[3.1.0]hexan-6-yl]benzamide], the IC50 in assay [1] was over 10 µM; in assay [2], ≤ 500 nM and 200 to 500 nM; in assay [3], over 10 µM; in assay [4], under 1000 nM.
In the case of `O=C(NOC[C@@H](O)CO)c1ccc(-c2c[nH]c3cc(F)ccc23)cc1` [Example 66, N-[(2S)-2,3-dihydroxypropoxy]-4-(6-fluoro-1H-indol-3-yl)benzamide], the IC50 in assay [1] was over 10 µM; in assay [2], ≤ 500 nM and 200 to 500 nM; in assay [3] it was 5 to 10 µM; in assay [4], under 1000 nM.
